PMC8455565 (Scientific Reports, 2021)
pIC50: −log10 of the molar value.

Columns and labels:
[1] = biological target: T1, BTK (Homo sapiens, UniProt Q06187); assay: Phase I BTK occupancy (free BTK ELISA) in PBMCs of healthy volunteers; format: in vivo; design: endogenous in cells; host or cells: PBMCs of healthy volunteers
Procedure: (§1) PK/PD data from 24 subjects who had received the drug BID among the 90 total subjects who participated in the MAD study were analyzed. Blood was collected on day 1 before drug administration and 1 h, 2 h, 4 h, and 12 h after drug administration. Blood samples were taken 3 days and 2 h after drug administration. Additional blood samples were taken on day 6 (5, 20, and 60 mg/kg), day 15 (40 mg/kg), day 17, and day 21 for PK/PD analysis.
The BTK occupancy assay and analysis of BTK phosphorylation inhibition were performed as described previously. Briefly, isolated PBMCs were lysed with RIPA buffer (R0278, Sigma-Aldrich) containing 1 × protease/phosphatase inhibitor (1861281, Thermo Fisher Scientific) and EDTA (1861274, Thermo Fisher Scientific). The supernatants were collected by 10 min at 14,000 × g in microcentrifuge at 4 °C and biotinylated probe was added to bind free BTK for 1 h. Rabbit anti-BTK Ab (1:5000 in 1% BSA) bound the captured BTK/probe complex, and was detected with […] antibody conjugated with HRP then ultra-TMB solution was added to each well for the free BTK analysis. Analysis of free and total BTK levels for the phase I study was conducted by Cambridge Biomedical Inc. (MA, USA). BTK occupancy was calculated by taking the free BTK and total BTK results from a given donor and used the following formula: %BTKoccupancy=100%-FreeBTK/totalBTK×100.

[2] = biological target: T2, TXK (Homo sapiens, UniProt P42681); assay: Kinase biochemical assay (FRET), TXK; conditions: read-out: inhibitory activity on TXK
T2 sequence (P42681 1-527): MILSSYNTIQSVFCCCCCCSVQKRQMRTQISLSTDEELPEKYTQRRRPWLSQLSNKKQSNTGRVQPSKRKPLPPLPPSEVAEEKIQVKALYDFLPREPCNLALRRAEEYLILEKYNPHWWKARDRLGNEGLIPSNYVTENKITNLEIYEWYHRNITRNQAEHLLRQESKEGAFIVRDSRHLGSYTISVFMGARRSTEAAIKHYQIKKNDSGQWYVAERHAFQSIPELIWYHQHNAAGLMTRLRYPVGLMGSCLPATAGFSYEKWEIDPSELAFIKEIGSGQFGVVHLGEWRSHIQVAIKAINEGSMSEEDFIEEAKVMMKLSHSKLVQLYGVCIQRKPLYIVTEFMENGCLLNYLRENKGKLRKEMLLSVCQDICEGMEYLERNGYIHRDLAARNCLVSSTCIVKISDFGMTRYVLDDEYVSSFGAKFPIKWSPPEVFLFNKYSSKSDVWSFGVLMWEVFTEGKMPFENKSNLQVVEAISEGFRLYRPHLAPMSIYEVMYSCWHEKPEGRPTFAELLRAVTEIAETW

[3] = biological target: T1, BTK; assay: hBTK Lanthascreen biochemical activity
[4] = test system: B cells; assay: B cell inhibition in whole blood; format: cell-based
[5] = test system: STAT5 (Y694); assay: IL-2-stimulated STAT5 phosphorylation (JAK3 signaling) in T and NK cells; format: cell-based, human; conditions: 30 μM
Procedure: The analysis measured 94 intracellular signaling nodes (81 phosphorylation sites, 10 total protein levels and 3 methylation/acetylation sites) in stimulated immune cells, including B cells (IgM plus CD40L), CD4 + and CD8 + T cells (IL-2; CD3 plus CD28), monocytes (M-CSF), NK cells (IL-2), and granulocytes (LPS).

[6] = Phase I pharmacokinetics in healthy volunteers; format: in vivo; conditions: male, human, plasma, oral; after multiple doses, all dose levels (BID)
Procedure: as §1
After drug administration, whole blood was collected from CIA model rats and human subjects at the indicated times. Plasma was obtained by centrifugation at 12,000 rpm for 2 min and stored at − 20 °C until analysis.

T1 sequence (Q06187 whole entry): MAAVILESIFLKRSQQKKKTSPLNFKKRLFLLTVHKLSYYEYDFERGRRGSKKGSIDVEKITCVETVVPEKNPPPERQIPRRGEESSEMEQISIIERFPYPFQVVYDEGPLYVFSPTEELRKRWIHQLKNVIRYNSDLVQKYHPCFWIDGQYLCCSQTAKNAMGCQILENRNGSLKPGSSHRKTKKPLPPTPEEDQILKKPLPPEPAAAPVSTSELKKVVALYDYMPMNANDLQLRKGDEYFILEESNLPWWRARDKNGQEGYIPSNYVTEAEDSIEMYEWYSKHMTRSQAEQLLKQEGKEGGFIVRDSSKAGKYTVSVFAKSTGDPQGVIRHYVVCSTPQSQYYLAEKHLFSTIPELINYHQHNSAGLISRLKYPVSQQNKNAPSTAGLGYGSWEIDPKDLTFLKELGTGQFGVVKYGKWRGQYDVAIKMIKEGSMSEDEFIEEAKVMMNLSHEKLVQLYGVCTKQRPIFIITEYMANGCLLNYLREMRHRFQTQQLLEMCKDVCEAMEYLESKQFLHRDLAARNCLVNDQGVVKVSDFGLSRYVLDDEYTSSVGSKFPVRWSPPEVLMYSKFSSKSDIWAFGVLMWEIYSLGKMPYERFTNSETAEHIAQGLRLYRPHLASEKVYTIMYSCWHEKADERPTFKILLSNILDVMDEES

- time of maximum BTK inhibition ([1]; 40 mg): 12 h
- BTK occupancy ([1]; 40 mg dosing, maintained up to 48 h after the first dose): More than 80%
- time of maximum BTK inhibition ([1]; 60 mg): 4 h
- BTK inhibition ([1]; 4 h after the first dose, doses of 40 mg and higher): > 90%
- inhibition at 20 mg ([1]; human, steady state (120 h), doses of 20 mg bid and higher): > 90%
- pIC50 [2]: > 8.00
- pIC50 [3]: 8.22
- pIC50 [4]: 6.38
- Tmax [6]: 1 to 2 h
SMILES: C=CC(=O)Nc1cccc(Oc2nc(Nc3ccc(N4CCN(C)CC4)cc3)nc3ccoc23)c1 [Poseltinib]
- IL-2-stimulated phosphorylation of STAT5 (Y694) ([5]; CD4 + T cells): inhibited
- IL-2-stimulated phosphorylation of STAT5 (Y694) ([5]; CD8 + T cells): inhibited
- IL-2-stimulated phosphorylation of STAT5 (Y694) ([5]; NK cells): inhibited
